In brackets after ≈: the same amount, converted by molar mass. Read-outs that look alike come from different tables or passages of the source.
How the values were obtained:
[1] = tested on: sea water marine organisms; assay: Effectiveness as sea water marine anti-foulant; format: in vivo; settings: result in words
Source text: The results in anti-fouling paints when utilizing the 3-isothiazolones of the patents noted above, are not predictable from their effectiveness as general biocides, whether against fresh water algae, bacteria, fungi, insects, etc.
Of the compounds appearing hereinafter in the examples, a number are common to Table 1 appearing in columns 9-12 of the U.S. Pat. No. 3,573,488 patent. Among the compounds common to the latter patent and the present specification are the compounds identified in the patent as example numbers 3, 5-8, 13, 23, 24, 33, 36, 37, the n-octyl isomer of examples 38, 40, 75, 76, 79, 84, and 93-96.
In example B of the U.S. Pat. No. 3,573,448 patent (appearing in columns 22-24) involving the control of algae, bacteria, fungi, and slime in fresh water cooling towers, not one of the compounds, or in some cases its homologue or analog, was effective as a salt water marine anti-foulant. […]
In the following examples, two systems of testing the compounds and evaluating the same are utilized. One involves the utilization of a confined amount of the materials to be evaluated in a cylindrical container having an open end covered by a membrane permeable to a limited extent by the sea water and by the compound in the container. The other method involves making up an anti-fouling paint and testing the same. In a four month period, meaningful results are obtained, and for a full scale test, a six month period, bracketing the summer months, is preferred. The evaluations involving (1) field tests, (2) laboratory tests, and (3) paint panel tests, are as follows: […]

[2] = Water solubility by UV spectrophotometric method; format: physicochemical; settings: water
How it was run: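 Molar absorptivity determined from UV absorbance of a known-concentration aqueous solution at λmax (10 cm cell). Saturated solution prepared by stirring excess compound in deionized water ~72 hrs, filtered, diluted to mid-scale absorbance; solubility calculated from absorbance using that absorptivity.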

[3] = Amount of toxicant remaining in the test container after membrane diffusion raft tests; format: physicochemical; parameters: key: 0: empty or trace; +: some; + +: ample; settings: after completion of membrane diffusion raft tests
How it was run: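 Known amount of compound held in a cylindrical container sealed with a membrane of known porosity, fixed to a raft panel so toxicant diffuses into the surrounding water. Each panel carries 35 test compounds, 4 standard poisons and 1 non-toxic membrane control. After the trial, container contents inspected visually for remaining toxicant (0 = empty or trace).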

weed [4] = assay: Membrane Diffusion Raft Trials, weed control; format: in vivo, grass-like algal growth common in sea water; parameters: key: 0 = none, + = some, ++ = effective; settings: membrane test, average 15 to 16 weeks of immersion
How it was run: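 Field raft test in sea water: known quantity of compound in container sealed with membrane of known porosity, diffusing into surrounding water; panels at waterline (illuminated, aerated) and flats (poorly lit, deeper). Fouling settlement inspected over about 15-16 weeks average immersion; scored 0 none, + some, ++ effective.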

barnacle = assay: Membrane Diffusion Raft Trials, barnacle control; format: in vivo, barnacles; parameters: key: 0 = none, + = some, ++ = effective barnacle control; settings: membrane test, average 15 to 16 weeks of immersion
How it was run: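 Test compound held in a plastic container sealed by a porous membrane, diffusing into surrounding seawater on raft panels alongside standard poisons and a non-toxic control membrane. Settlement timed and quantified by regular inspection; scored 0 (none), + (some) or ++ (effective), averaging 15 to 16 weeks' immersion.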

weed [5] = assay: Paint panel / plaque tests against weed (Table 2); format: in vivo, grass-like algal growth common in sea water; parameters: key: high performance; medium performance; low performance; poor or unacceptable performance; settings: April to November, 1975
Source text: (3) PAINT FORMULATION AND TEST PANEL OR PLAQUE TESTS
In order to evaluate the compound under practical conditions, weighed quantities of promising compounds are ground in standard volumes of a selected range of paint media and brushed out on plaques for marine immersion.
The anti-fouling paint formulations used is exemplified by the following: […]
The most preferred specific compounds were utilized in paints including vinyl chloride-vinyl acetate copolymers, chlorinated rubber, acrylic emulsions, and conventional paints with or without rosin to contain 20% by weight of biocide in the wet film and in some cases (Example 144 and Example 145) with concentrations of 5, 10, and 15% based on the wet film. Each of the compounds is also described in the membrane tests noted above. The paints were applied at normal thicknesses to plaques or panels of 10 centimeters by 10 centimeters which were immersed in various positions as described for the raft noted above. The compounds and results, as against weed, in the season April to November, 1975, are as follows: […]

Enteromorpha spores = assay: Laboratory toxicity test (Lab Bioassay) with Enteromorpha spores; format: in vivo; settings: using Enteromorpha spores
Source text: Standard laboratory toxicity tests use Enteromorpha spores (zoospores or gametes) but Ectocarpus spores and barnacle nauplii may also be used. During the spore tests additional information on the control of bacterial and diatom slimes becomes available since these organisms are unavoidably introduced with the spore inoculum.
More detailed laboratory toxicity tests on promising compounds determine LD50 values as percentage saturated solution.
^c Using Enteromorpha spores.

[6] = saturated solution, Table 1, read-out: Solubility by UV method

Structure (SMILES) | effectiveness as anti-foulant in sea water marine environments [1] | Contents at the end of test (amount of toxicants remaining in the test container) [3] | Weed Control (weed [4]) | Barnacle Control (barnacle) | solubility [2, 6] [µg/mL] | Lab Bioassay LD50 (Enteromorpha spores) | further results
O=c1cc(Cl)sn1Cc1ccccc1 [5-chloro-2-benzyl-3-isothiazolone] | effective in both environments |  |  |  |  |  | 
CCCCCCCCn1sccc1=O [Example 3, 2-n-octyl-3-isothiazolone] | not active for controlling sea water marine organisms | 0 | 0 | 0 |  |  | solubility [2]: 481 µg/mL (≈ 2250 µM); effectiveness as anti-foulant in sea water marine environments ([1]; listed as octyl homologue of 2-n-butyl-3-isothiazolone): ineffective as anti-foulants; effectiveness as anti-foulant in sea water marine environments ([1]; listed as octyl homologue of 2-n-decyl-3-isothiazolone): not active for controlling sea water marine organisms
Cn1scc(Cl)c1=O [4-chloro-2-methyl-3-isothiazolone, reference compound] | not active for controlling sea water marine organisms |  |  |  |  |  | 
CCCCn1sc(Cl)c(Cl)c1=O [Example 55] | control or inhibit the growth of one or more sea water marine organisms | + | + + | + | 1000 (≈ 4420 µM) |  | 
CCCCCCn1sc(Cl)c(Cl)c1=O [Example 56] | control or inhibit the growth of one or more sea water marine organisms | 0 | + + | + + | 115 (≈ 452 µM) |  | 
CCCCCCCCCCCCn1sccc1=O [Example 5] | not active for controlling sea water marine organisms | + | 0 | 0 |  |  | 
CCCCn1sccc1=O [Example 1, 2-n-butyl-3-isothiazolone] | ineffective as anti-foulants | 0 | 0 | 0 |  |  | 
CCCCCCCCCCn1sc(Cl)c(Cl)c1=O [Example 63] |  | + + | + + | 0 | 1.4 (≈ 4.51 µM) | 0.03 percentage saturated solution | Effectiveness in paint CONV (conventional anti-fouling formulation) (weed [5]): l; Effectiveness in paint CR (chlorinated rubber) (weed [5]): p; Effectiveness in paint CR/R (chlorinated rubber/rosin) (weed [5]): p; Effectiveness in paint EM (acrylic emulsion) (weed [5]): m; Effectiveness in paint V (polyvinyl chloride-acetate) (weed [5]): m; Effectiveness in paint V/R (vinyl/rosin) (weed [5]): m
CCCCCCCCCCn1sccc1=O [2-n-decyl-3-isothiazolone, reference compound] | ineffective as anti-foulants |  |  |  |  |  | 
O=c1c(Br)c(Cl)sn1-c1ccc(Cl)cc1 [Example 93] |  | + + | + + | + + | 1.72 (≈ 5.29 µM) | 0.012 percentage saturated solution | 
Cc1c(Cl)sn(-c2cccc(Cl)c2)c1=O [Example 113] |  | + + | + + | + | 13 (≈ 50 µM) | 0.013 percentage saturated solution | 
O=c1c(Br)csn1C1CCCCC1 [Example 51] |  | + | + + | + | 143 (≈ 545 µM) | 0.01 percentage saturated solution | 
CCCCCCCCn1scc(Cl)c1=O [Example 43] |  | + | + + | 0 | 60 (≈ 242 µM) | 0.0003 percentage saturated solution | Effectiveness in paint V (polyvinyl chloride-acetate) (weed [5]): h; Effectiveness in paint V/R (vinyl/rosin) (weed [5]): h
Cn1sc(Cl)cc1=O [5-chloro-2-methyl-3-isothiazolone, reference compound] | ineffective as anti-foulants |  |  |  |  |  | 
O=c1c(Cl)c(Cl)sn1Cc1ccc(Cl)cc1 [Example 72] |  | + + | + + | + | 11 (≈ 37.3 µM) | 0.015 percentage saturated solution | 
O=c1c(Cl)c(Cl)sn1-c1ccc(Cl)cc1 [Example 75] |  | + + | + + | 0 | 3 (≈ 10.7 µM) | 0.006 percentage saturated solution | 
O=c1ccsn1Cc1ccccc1 [2-benzyl-3-isothiazolone, reference compound] | not active for controlling sea water marine organisms |  |  |  |  |  | effectiveness as anti-foulant in sea water marine environments ([1]; listed as benzyl analogue of 2-n-butyl-3-isothiazolone): ineffective as anti-foulants
COc1cc(Cl)ccc1-n1sc(Cl)cc1=O [Example 41] |  | + + | + + | + | 55 (≈ 199 µM) | 0.03 percentage saturated solution | 
CCCCC(CC)Cn1sc(Cl)cc1=O (centres unmarked) [Example 17] |  | 0 | + + | + + | 135 (≈ 545 µM) | .013 percentage saturated solution | 
Cc1c(Cl)sn(-c2ccc(Cl)cc2)c1=O [Example 114] |  | + + | + + | + + | 14 (≈ 53.8 µM) | 0.008 percentage saturated solution | 
